Assay results: ChEMBL document CHEMBL5226352, “Inhibition of AlkB Nucleic Acid Demethylases: Promising New Epigenetic Targets” (J Med Chem, 2021)
pIC50: −log10 of the molar value.

Columns and labels:
[1] = target: T1, Alpha-ketoglutarate-dependent dioxygenase alkB homolog 3 (Homo sapiens) (UniProt Q96Q83); assay: Inhibition of ALKBH3 (unknown origin) at 50 uM relative to control
T1 sequence (whole entry): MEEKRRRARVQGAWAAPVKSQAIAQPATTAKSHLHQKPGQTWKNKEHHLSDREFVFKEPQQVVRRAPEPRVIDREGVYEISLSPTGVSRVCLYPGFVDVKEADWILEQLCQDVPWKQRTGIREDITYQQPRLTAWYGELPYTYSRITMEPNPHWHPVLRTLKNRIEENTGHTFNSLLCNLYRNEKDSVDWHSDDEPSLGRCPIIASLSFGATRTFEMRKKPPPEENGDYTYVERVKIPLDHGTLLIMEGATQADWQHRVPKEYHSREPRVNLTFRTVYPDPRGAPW

[2] = target: T2, Alpha-ketoglutarate-dependent dioxygenase AlkB (Escherichia coli (strain K12), UniProt P05050); assay: Inhibition of Escherichia coli AlkB-mediated demethylation using 40-mer single N3-meC containing ssDNA as substrate preincubated for 1 hr followed by substrate addition by fluorescence based assay
T2 sequence (P05050 whole entry): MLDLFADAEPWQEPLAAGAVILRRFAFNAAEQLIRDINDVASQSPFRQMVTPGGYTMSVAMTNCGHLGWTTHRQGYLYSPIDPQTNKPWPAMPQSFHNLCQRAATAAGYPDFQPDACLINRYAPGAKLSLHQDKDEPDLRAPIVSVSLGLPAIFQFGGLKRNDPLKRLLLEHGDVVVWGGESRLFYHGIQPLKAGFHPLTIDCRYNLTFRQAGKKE

[3] = target: T3, Alpha-ketoglutarate-dependent dioxygenase FTO (Homo sapiens, UniProt Q9C0B1); assay: Inhibition of human FTO (31 to 505 residues) demethylase activity using 15-mer ssRNA with CUUGUCA(m6A)CAGCAGA sequence as substrate incubated for 0.5 hrs by LC-MS/MS analysis
T3 sequence (Q9C0B1 whole entry, the tested form may be a part): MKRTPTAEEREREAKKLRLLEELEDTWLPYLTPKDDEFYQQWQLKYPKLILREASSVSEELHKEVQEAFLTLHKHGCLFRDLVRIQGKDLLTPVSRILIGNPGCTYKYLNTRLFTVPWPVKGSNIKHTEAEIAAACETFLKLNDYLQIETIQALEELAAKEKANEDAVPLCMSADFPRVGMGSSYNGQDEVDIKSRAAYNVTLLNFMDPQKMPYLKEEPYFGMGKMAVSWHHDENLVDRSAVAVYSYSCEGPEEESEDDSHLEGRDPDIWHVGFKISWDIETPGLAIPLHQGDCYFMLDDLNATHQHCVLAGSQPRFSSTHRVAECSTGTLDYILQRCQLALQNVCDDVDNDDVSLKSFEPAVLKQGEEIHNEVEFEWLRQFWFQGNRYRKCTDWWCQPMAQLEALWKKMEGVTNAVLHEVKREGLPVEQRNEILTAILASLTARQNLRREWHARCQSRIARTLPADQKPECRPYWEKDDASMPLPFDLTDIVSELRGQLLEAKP

[4] = target: T3, Alpha-ketoglutarate-dependent dioxygenase FTO; assay: Inhibition of N-terminal 31 residues truncated FTO (unknown origin) demethylase activity using m6A containing ssRNA as substrate incubated for 1 hr by LC-MS analysis
RNA demethylase ALKBH5 [5] = target: T4, RNA demethylase ALKBH5 (Homo sapiens, UniProt Q6P6C2); assay: Inhibition of human ALKBH5 (66 to 292 residues) demethylase activity using 49 nt methylated ssDNA as substrate incubated for 2 hrs by GelRed staining based restriction endonuclease digestion assay
T4 sequence (Q6P6C2 whole entry, the tested form may be a part): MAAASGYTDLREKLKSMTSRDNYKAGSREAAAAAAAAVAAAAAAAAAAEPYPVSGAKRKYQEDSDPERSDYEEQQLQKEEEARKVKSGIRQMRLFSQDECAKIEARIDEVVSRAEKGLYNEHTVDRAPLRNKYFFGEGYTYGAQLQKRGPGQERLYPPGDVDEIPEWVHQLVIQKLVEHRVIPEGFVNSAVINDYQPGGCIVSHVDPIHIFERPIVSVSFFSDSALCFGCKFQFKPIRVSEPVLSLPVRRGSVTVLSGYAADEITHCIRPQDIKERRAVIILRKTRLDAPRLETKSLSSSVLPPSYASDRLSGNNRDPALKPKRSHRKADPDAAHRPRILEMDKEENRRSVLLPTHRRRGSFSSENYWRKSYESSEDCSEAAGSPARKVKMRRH

[6] = target: T2, Alpha-ketoglutarate-dependent dioxygenase AlkB; assay: Inhibition of Escherichia coli AlkB by HPLC analysis
[7] = target: T5, Alpha-ketoglutarate-dependent dioxygenase alkB homolog 3 (Homo sapiens, UniProt Q96Q83); assay: Inhibition of human ALKBH3 by HPLC analysis
T5 sequence (Q96Q83 whole entry): T1 sequence (whole entry)

[8] = target: T6, DNA oxidative demethylase ALKBH2 (Homo sapiens, UniProt Q6NS38); assay: Inhibition of human ALKBH2 by HPLC analysis
T6 sequence (Q6NS38 whole entry): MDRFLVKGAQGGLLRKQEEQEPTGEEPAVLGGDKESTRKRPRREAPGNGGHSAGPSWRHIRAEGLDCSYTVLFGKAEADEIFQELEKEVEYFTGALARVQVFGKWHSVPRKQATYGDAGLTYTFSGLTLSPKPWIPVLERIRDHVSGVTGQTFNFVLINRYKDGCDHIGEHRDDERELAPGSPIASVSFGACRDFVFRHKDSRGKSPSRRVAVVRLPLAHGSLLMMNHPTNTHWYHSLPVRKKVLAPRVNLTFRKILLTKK

[9] = target: T6, DNA oxidative demethylase ALKBH2; assay: Inhibition of human ALKBH2 demethylase activity by restriction endonuclease digestion assay
RNA demethylase ALKBH5 [10] = target: T4, RNA demethylase ALKBH5; assay: Inhibition of N-terminal His-tagged human ALKBH5 (66 to 292 residues)
[11] = target: T5, Alpha-ketoglutarate-dependent dioxygenase alkB homolog 3; assay: Inhibition of human ALKBH3 demethylase activity by restriction endonuclease digestion assay
[12] = target: T3, Alpha-ketoglutarate-dependent dioxygenase FTO; assay: Inhibition of N-terminal 31 residues truncated His-tagged human FTO demethylase activity expressed in Escherichia coli BL21(DE3) cells
[13] = target: T3, Alpha-ketoglutarate-dependent dioxygenase FTO; assay: Inhibition of FTO (unknown origin) demethylation activity
[14] = target: T5, Alpha-ketoglutarate-dependent dioxygenase alkB homolog 3; assay: Inhibition of ALKBH3 (unknown origin) using 3-methyl cytosine oligo DNA as substrate incubated for 1 hr by SYBR green dye based RT-PCR analysis
[15] = Oral bioavailability in rat; assay type: ADME, organism-based; conditions: in vivo
[16] = target: T2, Alpha-ketoglutarate-dependent dioxygenase AlkB; assay: Inhibition of Escherichia coli AlkB DNA repair activity using 1-methyladenine with GC-1meA-AGGTCCCGTAGTGCG sequence as substrate by FDH coupled assay
RNA demethylase ALKBH5 [17] = target: T4, RNA demethylase ALKBH5; assay: Inhibition of human ALKBH5 (74 to 294 residues) expressed in Escherichia coli BL21(DE3) V2R-pRARE cells using biotin labeled m6A-ss-RNA with UACACUCGAUCUGG(m6A)CUAAAGCUGCUC sequence as substrate incubated for 1 hr by TopCount scintillation counting method

## O=C1c2ccc(-c3ccccc3)cc2C(NC2CCCCC2)C1Cl (configuration not stated)
[1]
  inhibition: 0%
[2]
  pIC50: 4.71

## COc1cc2c(cc1Cl)C(C)(C)CC(C)(c1cc(Cl)c(O)cc1O)O2 (configuration not stated)
[3]
  pIC50: 4.41

## O=C1OC2(c3ccc(O)cc3Oc3cc(O)ccc32)c2ccccc21 [FLUORESCEIN]
[4]
  pIC50: 5.49
RNA demethylase ALKBH5 [5]
  pIC50: < 4.00

## O=C(O)c1cc(O)c2c(c1)C(=O)c1cccc(O)c1C2=O [RHEIN]
[6]
  pIC50: 4.90
[7]
  pIC50: 5.28
[8]
  pIC50: 5.04

## Cc1ccc(Cl)c(Nc2ccccc2C(=O)O)c1Cl [MECLOFENAMIC ACID]
[9]
  pIC50: < 4.00
RNA demethylase ALKBH5 [10]
  pIC50: < 4.00
[11]
  pIC50: < 4.00
[12]
  pIC50: 5.10

## CCN(CC)C(=O)/C(C#N)=C/c1cc(O)c(O)c([N+](=O)[O-])c1 [ENTACAPONE]
[13]
  pIC50: 5.46

## Cc1nn(-c2nc3cc(F)ccc3[nH]2)c(O)c1-c1ccccc1
[14]
  pIC50: 5.54

## Cc1ccc2[nH]c(-n3nc(C)cc3O)nc2c1
[15]
  bioavailability: 7.2%

## O=C(O)c1ccc(O)c2ncccc12
[16]
  pIC50: 4.99
RNA demethylase ALKBH5 [17]
  pIC50: 5.54
